Like-named read-outs stand apart in the source and are kept apart here.
How the values were obtained:
[1] = Toxicokinetic evaluation of 14-day repeated intragastric administration to SD rats; assay type: in vivo; conditions: both sexes, SD, rat, plasma, po; for Vd/F at 7 day: Day 7, read-out: Apparent volume of distribution Vz/F; for CL/F at 7 day: Day 7, read-out: Clearance CL/F; for half-life at 7 day: Day 7, read-out: Half-life T1/2 (converted); for MRT at 7 day: Day 7, read-out: Residence time MRT; for Vd/F at 14 day: Day 14, read-out: Apparent volume of distribution Vz/F; for CL/F at 14 day: Day 14, read-out: Clearance CL/F; for half-life at 14 day: Day 14, read-out: Half-life T1/2 (converted); for Cmax at 14 day: Day 14, read-out: Plasma concentration Cmax; for MRT at 14 day: Day 14, read-out: Residence time MRT
Procedure: With SD rats as test animals, the plasma concentrations of the test compounds and the concentrations of the original forms of the compounds in the administration solutions were measured by LC/MS/MS at different time points after intragastric administration. The toxicokinetic performance of the compound disclosed herein was studied in SD rats and its toxicokinetic profile was evaluated.
24 SD rats, an equal number of males and females, evenly divided into 6 groups of 4, an equal number of males and females in each group, provided by Vital River Laboratory Animal Technology Co., Ltd.
A certain amount of the compound of Example 16 was measured out, and 15% PEG400 and 85% (10% TPGS+1% HPMC K100LV) were added to prepare a pale yellow homogenous suspension.
A certain amount of compound MYK-461 was measured out, and 0.5% MC was added to prepare a colorless clear solution.
The compound of Example 16 was intragastrically administered at doses of 5 mg/kg, 15 mg/kg and 30 mg/kg, at a volume of 10 mL/kg.
Compound MYK-461 was administered at doses of 0.5 mg/kg, 1.5 mg/kg and 3 mg/kg, at a volume of 10 mL/kg.
0.2-mL blood samples were collected from the orbit 0.5 h, 1.0 h, 2.0 h, 4.0 h, 8.0 h and 24.0 h after administration on day 1, and before administration and 0.5 h, 1.0 h, 2.0 h, 4.0 h, 8.0 hi, 24.0 h after administration on day 7 and day 14, placed into EDTA-K2 anticoagulation tubes, and centrifuged at 10,000 rpm for 1 min (4° C.), and plasma was isolated within 1 h and stored at −20° C. before analysis. The blood collection to centrifugation process was performed under ice bath conditions. Two hours after administration, feeding was resumed.
Determination of plasma concentrations in SD rats after intragastric administration of different concentrations of test compounds: 20 μL of SD rat plasma at each time point post-dose was mixed with 50 μL of an internal standard solution (internal standard for the compound of Example 16: 100 ng/mL verapamil; internal standard for compound MYK-461: 100 ng(mL camptothecin) and 200 μL of acetonitrile; the mixture was vortexed for 5 min and centrifuged at 3700 rpm for 10 min, and 1 μL of the supernatant was taken for LC/MS/MS analysis.

[2] = Pharmacokinetic evaluation in beagles; assay type: in vivo; conditions: for AUC: read-out: Area under curve AUC; for half-life: read-out: Half-life T1/2 (converted); for Cmax: read-out: Plasma concentration Cmax; for MRT: read-out: Residence time MRT
Procedure: With beagles as test animals, the plasma concentrations of the test compounds were measured by LC/MS/MS at different time points after intragastric administration and intravenous injection. The pharmacokinetic performance of the compound disclosed herein was studied in beagles and its pharmacokinetic profile was evaluated.
Pharmacokinetics of the compound of Example 16 in beagles: 8 beagles, an equal number of males and females, divided into 2 groups of 4, provided by Shanghai Medicilon Inc. Pharmacokinetics of compound MYK-461 in beagles: 6 beagles, male, divided into 2 groups of 3, provided by Shanghai Medicilon Inc.
A certain amount of the compound of Example 16 was measured out, and 5% DMSO, 30% PG, 30% PEG400 and 35% normal saline were added to prepare a clear solution.
A certain amount of compound MYK-461 was measured out, and 5% DMSO, 20% PG, 20% PEG400 and 55% normal saline were added to prepare a clear solution.
Beagles were fasted overnight and then given compounds by intragastric administration and intravenous injection at doses of 2 mg/kg and 0.5 mg/kg, respectively, and at volumes of 5 mL/kg and 2 mL/kg, respectively.
1.0-mL blood samples were collected from the jugular veins or forelimb veins of the animals in the intragastric administration group before administration and 0.25 h, 0.5 h, 1.0 h, 2.0 h, 4.0 h, 6.0 h, 8.0 h, 12.0 h and 24.0 h after administration, placed into EDTA-K2 anticoagulant tubes, and centrifuged at 10,000 rpm for 5 min (4° C.), and plasma was isolated within 1 h and stored at −80° C. before analysis. The blood collection to centrifugation process was performed under ice bath conditions. Three hours after administration, feeding was resumed.
Blood samples were collected from the animals in the intravenous injection group before administration and 5 min, 0.25 h, 0.5 h, 1.0 h, 2.0 h, 4.0 h, 8.0 h, 12.0 h and 24.0 h after administration and processed as in the intragastric administration group.
Determination of plasma concentrations in beagles after intragastric administration and intravenous injection of different concentrations of test compounds: 30 μL of beagle plasma at each time point post-dose was mixed with an internal standard solution (internal standard for the compound of Example 16: 100 ng/mL warfarin; internal standard for compound MYK-461: 100 ng/mL tolbutamide) and 300 μL of methanol; the mixture was vortexed for 1 min and centrifuged at 18,000 g for 7 min, and 200 μL of the supernatant was transferred to a 96-well plate; 1 μL of the supernatant was taken for LC/MS/MS analysis.

[3] = 0.5 mg/kg, repeated intragastric 0.5 mg/kg
[4] = 1.5 mg/kg, repeated intragastric 1.5 mg/kg
[5] = 3 mg/kg, repeated intragastric 3.0 mg/kg
[6] = both (Example 16), male (MYK-461), beagle, dog, plasma, intravenous injection, 0.5 mg/kg
[7] = both (Example 16), male (MYK-461), beagle, dog, plasma, po, intragastric administration, 2 mg/kg
[8] = intravenous injection, 0.5 mg/kg

T1/2 comparison (in words) [2]: longer T1/2
AUC [2, 6]: 1380 ng·h/mL
half-life [2, 6]: 2830 min
Cmax [2, 6]: 215 ng/mL
MRT [2, 6]: 72.2 h
Vd/F ([2]; both (Example 16), male (MYK-461), beagle, dog, plasma, po, intragastric administration, 2 mg/kg, read-out: Apparent volume of distribution Vz/F): 3.9 L/kg
AUC [2, 7]: 8720 ng·h/mL
CL/F ([2]; both (Example 16), male (MYK-461), beagle, dog, plasma, po, intragastric administration, 2 mg/kg, read-out: Clearance CL/F): 1.48 mL/min/kg
half-life [2, 7]: 2330 min
Cmax [2, 7]: 1440 ng/mL
MRT [2, 7]: 59.2 h
Apparent volume of distribution Vz/F [2, 8]: 6308 mL/kg
Clearance CL/F [2, 8]: 1.63 mL/min/kg
Structure (SMILES): CC(C)n1c(=O)cc(N[C@@H](C)c2ccccc2)[nH]c1=O [MYK-461, reference compound]
Vd/F ([1]; 0.5 mg/kg, repeated intragastric 0.5 mg/kg, Day 1, read-out: Apparent volume of distribution Vz/F): 13.8 L/kg
AUC ([1]; 0.5 mg/kg, repeated intragastric 0.5 mg/kg, Day 1, read-out: Area under curve AUC): 491 ng·h/mL
CL/F ([1]; 0.5 mg/kg, repeated intragastric 0.5 mg/kg, Day 1, read-out: Clearance CL/F): 12.9 mL/min/kg
half-life ([1]; 0.5 mg/kg, repeated intragastric 0.5 mg/kg, Day 1, read-out: Half-life T1/2 (converted)): 798 min
Cmax ([1]; 0.5 mg/kg, repeated intragastric 0.5 mg/kg, Day 1, read-out: Plasma concentration Cmax): 40.2 ng/mL
MRT ([1]; 0.5 mg/kg, repeated intragastric 0.5 mg/kg, Day 1, read-out: Residence time MRT): 19 h
Vd/F at 7 day [1, 3]: 8.41 L/kg
AUC ([1]; 0.5 mg/kg, repeated intragastric 0.5 mg/kg, Day 7, read-out: Area under curve AUC): 888 ng·h/mL
CL/F at 7 day [1, 3]: 7.46 mL/min/kg
half-life at 7 day [1, 3]: 882 min
Cmax ([1]; 0.5 mg/kg, repeated intragastric 0.5 mg/kg, Day 7, read-out: Plasma concentration Cmax): 51.7 ng/mL
MRT at 7 day [1, 3]: 21.3 h
Vd/F at 14 day [1, 3]: 5.86 L/kg
AUC ([1]; 0.5 mg/kg, repeated intragastric 0.5 mg/kg, Day 14, read-out: Area under curve AUC): 1560 ng·h/mL
CL/F at 14 day [1, 3]: 3.06 mL/min/kg
half-life at 14 day [1, 3]: 1970 min
Cmax at 14 day [1, 3]: 89.3 ng/mL
MRT at 14 day [1, 3]: 47.3 h
Vd/F at 1 day ([1]; 1.5 mg/kg, repeated intragastric 1.5 mg/kg, Day 1, read-out: Apparent volume of distribution Vz/F): 9.56 L/kg
AUC ([1]; 1.5 mg/kg, repeated intragastric 1.5 mg/kg, Day 1, read-out: Area under curve AUC): 2580 ng·h/mL
CL/F at 1 day ([1]; 1.5 mg/kg, repeated intragastric 1.5 mg/kg, Day 1, read-out: Clearance CL/F): 6.39 mL/min/kg
half-life at 1 day ([1]; 1.5 mg/kg, repeated intragastric 1.5 mg/kg, Day 1, read-out: Half-life T1/2 (converted)): 1150 min
Cmax at 1 day ([1]; 1.5 mg/kg, repeated intragastric 1.5 mg/kg, Day 1, read-out: Plasma concentration Cmax): 140 ng/mL
MRT at 1 day ([1]; 1.5 mg/kg, repeated intragastric 1.5 mg/kg, Day 1, read-out: Residence time MRT): 28.2 h
Vd/F at 7 day [1, 4]: 4.8 L/kg
AUC ([1]; 1.5 mg/kg, repeated intragastric 1.5 mg/kg, Day 7, read-out: Area under curve AUC): 5180 ng·h/mL
CL/F at 7 day [1, 4]: 3.58 mL/min/kg
half-life at 7 day [1, 4]: 1230 min
Cmax at 7 day ([1]; 1.5 mg/kg, repeated intragastric 1.5 mg/kg, Day 7, read-out: Plasma concentration Cmax): 269 ng/mL
MRT at 7 day [1, 4]: 30.2 h
Vd/F at 14 day [1, 4]: 5.03 L/kg
AUC ([1]; 1.5 mg/kg, repeated intragastric 1.5 mg/kg, Day 14, read-out: Area under curve AUC): 6320 ng·h/mL
CL/F at 14 day [1, 4]: 2.57 mL/min/kg
half-life at 14 day [1, 4]: 1570 min
Cmax at 14 day [1, 4]: 333 ng/mL
MRT at 14 day [1, 4]: 38.5 h
Vd/F at 1 day ([1]; 3 mg/kg, repeated intragastric 3.0 mg/kg, Day 1, read-out: Apparent volume of distribution Vz/F): 8.93 L/kg
AUC ([1]; 3 mg/kg, repeated intragastric 3.0 mg/kg, Day 1, read-out: Area under curve AUC): 5210 ng·h/mL
CL/F at 1 day ([1]; 3 mg/kg, repeated intragastric 3.0 mg/kg, Day 1, read-out: Clearance CL/F): 4.91 mL/min/kg
half-life at 1 day ([1]; 3 mg/kg, repeated intragastric 3.0 mg/kg, Day 1, read-out: Half-life T1/2 (converted)): 1710 min
Cmax at 1 day ([1]; 3 mg/kg, repeated intragastric 3.0 mg/kg, Day 1, read-out: Plasma concentration Cmax): 297 ng/mL
MRT at 1 day ([1]; 3 mg/kg, repeated intragastric 3.0 mg/kg, Day 1, read-out: Residence time MRT): 43.1 h
Vd/F at 7 day [1, 5]: 4.36 L/kg
AUC ([1]; 3 mg/kg, repeated intragastric 3.0 mg/kg, Day 7, read-out: Area under curve AUC): 12500 ng·h/mL
CL/F at 7 day [1, 5]: 1.97 mL/min/kg
half-life at 7 day [1, 5]: 11400 min
Cmax at 7 day ([1]; 3 mg/kg, repeated intragastric 3.0 mg/kg, Day 7, read-out: Plasma concentration Cmax): 628 ng/mL
MRT at 7 day [1, 5]: 275 h
Vd/F at 14 day [1, 5]: 3.8 L/kg
AUC ([1]; 3 mg/kg, repeated intragastric 3.0 mg/kg, Day 14, read-out: Area under curve AUC): 16000 ng·h/mL
CL/F at 14 day [1, 5]: 1.3 mL/min/kg
half-life at 14 day [1, 5]: 2790 min
Cmax at 14 day [1, 5]: 767 ng/mL
MRT at 14 day [1, 5]: 68.1 h
